Test results reported in patent publication US11382328B2, “Rapid drug discovery methods for pathogen inactivation” (priority 2019, dated 2022).

System: E. coli strain W3110
Assay: Synergy assays: Biolog chemical sensitivity panels with Group IB metal, coefficient of drug interaction (CDI) from relative growth
Type: cell-based
Conditions: for CDI (coefficient of drug interaction), copper mixed with biocide: Copper (mM) section
[1] = 1st of 3 copper concentrations (value not shown), 4th of four biocide concentrations
[2] = 2nd of 3 copper concentrations (value not shown), 4th of four biocide concentrations
[3] = 3rd of 3 copper concentrations (value not shown), 4th of four biocide concentrations
[4] = Gold 5 μM, biocide concentration 4 of 4, E. coli
[5] = Gold 25 μM, biocide concentration 4 of 4, E. coli
[6] = Silver 0.5 μM, 4th of four biocide concentrations, E. coli
[7] = Silver 1.0 μM, 4th of four biocide concentrations, E. coli
[8] = Silver 5.0 μM, 4th of four biocide concentrations, E. coli
[9] = […], biocide concentration 4 of 4, E. coli
[10] = Gold section of Table 5, first of three gold concentrations (μM, value not given), biocide concentration 4 of 4
[11] = Gold section of Table 5, second of three gold concentrations (μM, value not given), biocide concentration 4 of 4
[12] = Gold section of Table 5, third of three gold concentrations (μM, value not given), biocide concentration 4 of 4
[13] = Silver 0.5 μM, biocide concentration 4 of 4
[14] = Silver 1.0 μM, biocide concentration 4 of 4
[15] = Silver 5.0 μM, biocide concentration 4 of 4

Oc1ccccc1-c1ccccc1 [2-phenylphenol]
Tox: CDI (coefficient of drug interaction), copper mixed with biocide [1] | CDI (coefficient of drug interaction), copper mixed with biocide [2] | CDI (coefficient of drug interaction), copper mixed with biocide [3] | CDI (coefficient of drug interaction) [4] | CDI (coefficient of drug interaction) [5] | CDI (coefficient of drug interaction), silver + biocide (Silver 0.5 μM, 3rd of four biocide concentrations, E. coli) | CDI (coefficient of drug interaction), silver + biocide [6] | CDI (coefficient of drug interaction), silver + biocide (Silver 1.0 μM, 3rd of four biocide concentrations, E. coli) | CDI (coefficient of drug interaction), silver + biocide [7] | CDI (coefficient of drug interaction), silver + biocide (Silver 5.0 μM, 3rd of four biocide concentrations, E. coli) | CDI (coefficient of drug interaction), silver + biocide [8] | CDI (coefficient of drug interaction) [9]

COc1ccc(CO)cc1OC [3,4-dimethoxybenzyl alcohol]
Tox: CDI (coefficient of drug interaction), copper mixed with biocide [1] | CDI (coefficient of drug interaction), copper mixed with biocide [2] | CDI (coefficient of drug interaction), copper mixed with biocide [3] | CDI (coefficient of drug interaction) [10] | CDI (coefficient of drug interaction) [11] | CDI (coefficient of drug interaction) [12] | CDI [13] | CDI [14] | CDI [15]

Nc1nc[nH]n1 [3-Amino-1,2,4-triazole]
Tox: CDI (coefficient of drug interaction), copper mixed with biocide [1] | CDI (coefficient of drug interaction), copper mixed with biocide [3] | CDI (coefficient of drug interaction) [10] | CDI (coefficient of drug interaction) [11] | CDI (coefficient of drug interaction) [12] | CDI [13] | CDI [14] | CDI [15]

O=c1cc(O)c2ccccc2o1 [4-Hydroxy-coumarin]
Tox: CDI (coefficient of drug interaction), copper mixed with biocide [1] | CDI (coefficient of drug interaction), copper mixed with biocide [3] | CDI (coefficient of drug interaction) [4] | CDI (coefficient of drug interaction) [5] | CDI (coefficient of drug interaction), silver + biocide [6] | CDI (coefficient of drug interaction), silver + biocide [7] | CDI (coefficient of drug interaction), silver + biocide [8] | CDI (coefficient of drug interaction) [9]

Cc1ccc2c(Cl)cc(Cl)c(O)c2n1 [5,7-dichloro-8-hydroxyquinaldine]
Tox: CDI (coefficient of drug interaction), silver + biocide [6] | CDI (coefficient of drug interaction), silver + biocide [7] | CDI (coefficient of drug interaction), silver + biocide [8]

NC(=O)NN=Cc1ccc([N+](=O)[O-])o1 [5-Nitro-2-furaldehyde semicarbazone]
Tox: CDI (coefficient of drug interaction) ([…], biocide concentration 3 of 4, E. coli) | CDI (coefficient of drug interaction) [9]

Nc1c2ccccc2nc2ccccc12 [9-aminoacridine]
Tox: CDI (coefficient of drug interaction), copper mixed with biocide [2] | CDI (coefficient of drug interaction), silver + biocide [6] | CDI (coefficient of drug interaction), silver + biocide [7] | CDI (coefficient of drug interaction), silver + biocide [8]

N#CC(C#N)=NNc1cccc(Cl)c1 [CCCP, Carbonyl cyanide m-chlorophenylhydrazone]
Tox: CDI (coefficient of drug interaction) (Copper (mM), 1st of 3 copper concentrations (head line not shown), biocide concentration 4 of 4, E. coli) | CDI (coefficient of drug interaction) (Copper (mM), 2nd of 3 copper concentrations (head line not shown), biocide concentration 4 of 4, E. coli) | CDI (coefficient of drug interaction) (Copper (mM), 3rd of 3 copper concentrations (head line not shown), biocide concentration 4 of 4, E. coli) | CDI [13] | CDI [14] | CDI [15]
